Experimental findings from patent US12605352B2, “Compositions and methods for inhibiting blood cancer cell growth” (UNIVERSITY OF NEW BRUNSWICK, priority 2019, dated 2026) are described below.

The test system of assay [1] is KMM-1 human myeloma cells. The experiment in a line: Cell growth inhibition (cell viability assay) on IMiD-resistant human myeloma cells KMM-1. Type of assay: cell-based. The conditions noted are these: for inhibition at 10 µM: Homo sapiens, KMM-1 cells, 48 hr treatment; for anti-myeloma cell growth inhibition (in words): 10 uM, KMM-1, listed in decreasing order of bioactivity. The text has this:
(§1) In certain embodiments of the present invention, the remarkable cancer cell growth inhibitory potential of caffeic acid phenpropyl ester analogues was established by treating human leukemia, myeloma and lymphoma cell lines with the analogues of Table 1 and measuring the viability of blood cancer cells by cell viability assay. The efficacy of the analogues of Table 1 in comparison to a standard chemotherapy drug was confirmed.
With reference to Table 1, Table 2 and FIG. 1, FIG. 1 is a bar graph depicting cell growth inhibitory effect of caffeic acid phenpropyl ester (GL8) analogues at 10 uM concentration according to certain aspects of the present disclosure on human myeloma cells (Cell line: KMM-1; 48 hr treatment).

The subject of assay [2] is OCI-LY3 human lymphoma cells. The experiment in a line: Cell growth inhibition (cell viability assay) on IMiD-resistant human lymphoma cells OCI-LY3. It is filed as cell-based. As to conditions: for anti-lymphoma cell growth inhibition (in words) / inhibition at 10 µM: 10 uM; for anti-lymphoma cell growth inhibition (in words): OCI-LY3, listed in decreasing order of bioactivity; for inhibition at 1 µM / inhibition at 10 µM: Homo sapiens, OCI-LY3 cells, 48 hr treatment.
Description: as §1
With reference to Table 3 and FIG. 2, FIG. 2 is a bar graph depicting cell growth inhibitory effect of caffeic acid phenpropyl ester (GL8) analogues according to certain aspects of the present disclosure at 1 uM concentration on human lymphoma cells (Cell line: OCI-LY3; 48 hr treatment).
With reference to Table 1, Table 4 and FIG. 3, FIG. 3 is a bar graph depicting cell growth inhibitory effect of caffeic acid phenpropyl ester (GL8) analogues according to certain aspects of the present disclosure at 10 uM concentration on human lymphoma cells (Cell line: OCI-LY3; 48 hr treatment).

For assay [3], the system named is HL-60 human leukemia cells. The experiment in a line: Cell growth inhibition (cell viability assay) on human leukemia cells HL-60. It is filed as cell-based. The conditions noted are these: HL-60 cells, 48 hr treatment.
Description: as §1
With reference to Table 5 and FIG. 4, FIG. 4 is a bar graph depicting cell growth inhibitory effect of caffeic acid phenpropyl ester (GL8) analogues at 10 uM concentration according to certain aspects of the present disclosure on human leukemia cells (Cell line: HL-60; 48 hr treatment).

Another assay deals with KMM1 cells. In words: Annexin V-PI flow cytometry apoptosis assay on KMM1 myeloma cells. Type of assay: cell-based, human. The conditions noted are these: 10 uM, 72-hour treatment. The protocol:
Induction of apoptosis in myeloma cells by various inhibitors was determined by staining exposed phosphatidylserine with Annexin V-FITC and DNA with Propidium iodide using Alexa Fluor® 488 annexin V/Dead Cell Apoptosis Kit (Invitrogen, ThermoFisher Scientific, CA) according to the manufacturer's instructions. Single-cell suspensions were analyzed on a Beckmann Coulter Gallios Flow Cytometer with Kaluza analyses software. Twenty-five thousand events were acquired for every condition. Apoptotic cells were scored as Annexin V+, PI− and Annexin V+, PI+.
Referring to FIG. 6, Apoptotic effect of veh/vehicle (DMSO), lenalidomide (len), pomalidomide (pom), CAPE, GL8, As26 and J229 (all compounds at 10 uM concentration) on KMM1 cells upon 72-hour treatment followed by Annexin V-PI flow cytometry analyses is shown. Percentage of early and late apoptotic cells are presented as mean±SD (*P≤0.05; **P≤0.01).

The test system of assay [4] is myeloma cell lines (KMM1, MM1R, JJN3). In words: PrestoBlue cell viability assay, concentration response on myeloma cell lines. The conditions noted are these: in comparison to IMiDs, CAPE, GL8 and J229; 48 hours. It is filed as cell-based, human. The protocol: Myeloma cell lines were treated for 3 or 5 days with increasing concentration of lenalidomide (FIG. 5A) and pomalidomide (FIG. 5B). KMM1 cells (FIG. 5D), MM1R cells (FIG. 5E), and JJN3 cells (FIG. 5F) were treated for 48 hours with varying concentration of CAPE, GL8, As26 and J229. The cell growth inhibition was determined by PrestoBlue cell viability assay. Data from three independent experiments is presented as mean±SD. IC50 values (FIG. 5C) representing half-maximal inhibitory concentration of compounds were determined using GraphPad prism analyses software.

In the case of `O=C(/C=C/c1cccc(O)c1O)OCCCc1ccccc1` [As25, (E)-3-phenylpropyl 3-(2,3-dihydroxyphenyl)acrylate], the inhibition at 10 µM in assay [1] came to 15.1%. In assay [2], the “anti-lymphoma cell growth inhibition (in words)” value is listed as “superior anti-lymphoma cell growth inhibition”, the inhibition at 1 µM is 69% and the inhibition at 10 µM stood at 84%. The inhibition at 10 µM in assay [3] turned out to be 13.6%.
Regarding `O=C(/C=C/c1cc(O)ccc1O)OCCCc1ccccc1` [As26, (E)-3-phenylpropyl 3-(2,5-dihydroxyphenyl)acrylate], in assay [1], the “anti-myeloma cell growth inhibition (in words)” value is recorded as “superior anti-myeloma cell growth inhibition” and the inhibition at 10 µM was found to be 89.7%. For the same compound, in assay [2], the “anti-lymphoma cell growth inhibition (in words)” value is reported as “superior anti-lymphoma cell growth inhibition”, the inhibition at 1 µM was 26.6% and the inhibition at 10 µM was found to be 90.3%. For the same compound, the inhibition at 10 µM in assay [3] turned out to be 54.4%. Moreover, the “apoptotic effect (in words)” value in the assay on KMM1 cells is recorded as “Remarkable apoptotic effect”. The “myeloma cell growth inhibitory effect (in words)” value in assay [4] is “superior myeloma cell growth inhibitory effect”.
As to `O=C(/C=C/c1ccc(O)c(O)c1)OCCc1ccccc1` [CAPE, Caffeic acid (3,4-dihydroxycinnamic acid) phenethyl ester, reference compound], the inhibition at 10 µM in assay [1] was 14.7%; in assay [2] it was 51.8%; in assay [3] it was -6.8%. Further, the inhibition at 1 µM in assay [2] was -24.3%.
`O=C(/C=C/c1ccc(O)c(O)c1)OCc1ccccc1` [GL7, (E)-benzyl 3-(3,4-dihydroxyphenyl)acrylate]: the inhibition at 10 µM in assay [1] was 15.9%; in assay [2], 18.9%; in assay [3], 20.5%. Further, the inhibition at 1 µM in assay [2] came to 10.5%.
Consider `O=C(/C=C/c1ccc(O)c(O)c1)OCCCc1ccccc1` [GL8, caffeic acid phenpropyl ester, reference compound], for which the inhibition at 10 µM stood at 28.2% in assay [1], 78.7% in assay [2] and 36% in assay [3]. Besides, the inhibition at 1 µM in assay [2] is -4.6%.
The corresponding values for `O=C(/C=C/c1ccc(O)c(O)c1)Oc1ccccc1` [GL9, (E)-phenyl 3-(3,4-dihydroxyphenyl)acrylate] are 26%, 44.7%, 6.8% and 26.3%.
The matching figures for `COc1cc(/C=C/C(=O)OCCc2ccccc2)cc(OC)c1O` [HM5, (E)-phenethyl 3-(4-hydroxy-3,5-dimethoxyphenyl)acrylate]: -8.6%, -15.4%, -13.3% and 3.1%.
Turning to `COc1cc(/C=C/C(=O)OCCCc2ccccc2)cc(OC)c1O` [HM7, (E)-3-phenylpropyl 3-(4-hydroxy-3,5-dimethoxyphenyl)acrylate], in assay [1], the “anti-myeloma cell growth inhibition (in words)” value is “superior anti-myeloma cell growth inhibition” and the inhibition at 10 µM came to 26.6%. In assay [2], the “anti-lymphoma cell growth inhibition (in words)” value is “superior anti-lymphoma cell growth inhibition”, the inhibition at 1 µM was -4.9% and the inhibition at 10 µM is 90%. Further, the inhibition at 10 µM in assay [3] turned out to be 24.1%.
As to `O=C(/C=C/c1ccc(O)c(O)c1)OC/C=C/c1ccccc1` [LL14, (2E)-cinnamyl 3-(3,4-dihydroxyphenyl)acrylate], the inhibition at 10 µM was found to be 16.1% in assay [1], 61.5% in assay [2] and 21.6% in assay [3]. Besides, the inhibition at 1 µM in assay [2] was -1%.
With `O=C(/C=C/c1ccc(O)c(O)c1)OCCCCc1ccccc1` [LL23, (E)-4-phenylbutyl 3-(3,4-dihydroxyphenyl)acrylate], in assay [1], the “anti-myeloma cell growth inhibition (in words)” value is “superior anti-myeloma cell growth inhibition” and the inhibition at 10 µM was 27.2%. Further, in assay [2], the inhibition at 1 µM was -9.3% and the inhibition at 10 µM came to 71.7%. For the same compound, in assay [3], the inhibition at 10 µM was determined as 33%.
Consider `O=C(/C=C/c1ccc(O)c(O)c1)NCCCc1ccccc1` [LL28, (E)-3-(3,4-dihydroxypheny1)-N-(3-phenylpropyl)acrylamide], for which the inhibition at 10 µM turned out to be 15.8% in assay [1], 36% in assay [2] and 8.7% in assay [3]. In addition, the inhibition at 1 µM in assay [2] is -9.5%.
In the case of `Nc1cccc2c1CN(C1CCC(=O)NC1=O)C2=O` (stereo not shown) [Lenalidomide, lenalidomide, reference compound], the inhibition at 10 µM in assay [1] is 7.5%; in assay [2], 7.5%; in assay [3] it was 1.6%.
On to `Cc1ccc(CCOC(=O)/C=C/c2ccc(O)c(O)c2)cc1` [MT25, (E)-(4-methylphenethyl) 3-(3,4-dihydroxyphenyl)acrylate], for which the inhibition at 10 µM in assay [1] was 21.6%; in assay [2] it was 59.8%; in assay [3] it was 28.7%. Further, the inhibition at 1 µM in assay [2] came to 10%.
`O=C(/C=C/c1ccc(O)c(O)c1)OCCc1ccc(F)cc1` [MT26, (E)-(4-fluorophenethyl) 3-(3,4-dihydroxyphenyl)acrylate]: the inhibition at 10 µM in assay [1] was 25.9%. In addition, in assay [2], the “anti-lymphoma cell growth inhibition (in words)” value was “superior anti-lymphoma cell growth inhibition”, the inhibition at 1 µM is 0.7% and the inhibition at 10 µM came to 79.3%. In addition, the inhibition at 10 µM in assay [3] was determined as 32.1%.
With `COc1cc(/C=C/C(=O)OCCc2ccccc2)ccc1O` [MT49, (E)-phenethyl 3-(4-hydroxy-3-methoxyphenyl)acrylate], the inhibition at 10 µM came to 6.5% in assay [1], 1.2% in assay [2] and 14.4% in assay [3]. The inhibition at 1 µM in assay [2] is -1%.
For the compound `COc1cc(/C=C/C(=O)OCCCc2ccccc2)ccc1O` [MT50, (E)-3-phenylpropyl 3-(4-hydroxy-3-methoxyphenyl)acrylate], the inhibition at 10 µM in assay [1] came to 13.6%; in assay [2], 1.5%; in assay [3], 13.4%. Besides, in assay [2], the inhibition at 1 µM is -0.7%.
For `O=C(/C=C/c1ccc(O)cc1O)OCCCc1ccccc1` [MT72, (E)-3-phenylpropyl 3-(2,4-dihydroxyphenyl)acrylate], the inhibition at 10 µM is -0.2% in assay [1], -4.5% in assay [2] and -8.2% in assay [3]. The inhibition at 1 µM in assay [2] stood at 3.3%.
Regarding `O=C(/C=C/c1ccc(O)c(O)c1)OCC#Cc1ccccc1` [Molecule J91, (E)-3-phenylprop-2-ynyl 3-(3,4-dihydroxyphenyl)acrylate], in assay [1], the “anti-myeloma cell growth inhibition (in words)” value is “superior anti-myeloma cell growth inhibition” and the inhibition at 10 µM stood at 31.7%. Also, in assay [2], the inhibition at 1 µM is 0.3% and the inhibition at 10 µM amounted to 39.8%. Also, the inhibition at 10 µM in assay [3] came out at 32.4%.
Regarding `O=C(/C=C/c1ccc(O)c(O)c1)CCCc1ccccc1` [Molecule J205, (E)-1-(3,4-dihydroxyphenyl)-6-phenylhex-1-en-3-one], the inhibition at 10 µM in assay [1] came out at 22.2%; in assay [2], 76.6%; in assay [3] it was 60.7%. Besides, in assay [2], the inhibition at 1 µM was 18.7%.
Turning to `Oc1ccc(/C=C/COCCCc2ccccc2)cc1O` [Molecule J229, 4-((E)-3-(3-phenylpropoxy)prop-1-enyl)benzene-1,2-diol], in assay [1], the “anti-myeloma cell growth inhibition (in words)” value was “superior anti-myeloma cell growth inhibition” and the inhibition at 10 µM turned out to be 49.4%. Further, in assay [2], the “anti-lymphoma cell growth inhibition (in words)” value is given as “superior anti-lymphoma cell growth inhibition”, the inhibition at 1 µM worked out at 2.3% and the inhibition at 10 µM worked out at 78.2%. Moreover, the inhibition at 10 µM in assay [3] was 54.3%.
